In one series the test system is SKB3. Put plainly: Inhibition of cancer cell proliferation by delivered drugs. The class given is cell-based. Particulars: drug complexed with VEPEP-9f at molar ratio 1/20, read-out: VEPEP-9f IC50.
The subject of series [1] is MCF7. The description is as above. The class given is cell-based. To be noted: Homo sapiens.
Series [2] has as its system SKB3-HEK2 xenografted mice. Put plainly: Survival after intravenous NANOPEP-9/doxorubicin. The class given is in vivo. Particulars: free Doxo (20 mg/Kg), intravenous every 4 days. The method, then: NANOPEP-9 peptides (VEPEP-9a, b, d, f variants) have been used for the delivery of doxorubicin in vivo. The potential of NANOPEP-9 to deliver doxorubicin in vivo was evaluated on SKB3-HEK2 xenografted mice. Doxorubicin was complexed with VEPEP-9 peptide at a molar ratio of 1/20 with NANOPEP-9a, NANOPEP-9f and NANOPEP-9a-PEG. The treatment was started 10 days after tumor inoculation and with 2 mg/kg and 10 mg/Kg doses of drug and injected every 4 days by systemic Intravenous administration and mice were monitored for survival (FIG. 15).

The subject of series [3] is non-transformed HS68 fibroblasts. Put plainly: Cell proliferation after VEPEP-9 mediated delivery. The class given is cell-based, Human. The protocol: (§1) Adherent HS68 fibroblasts, HeLa, PC3, MCF-7, SCK3-Her2, PBMC cell lines (from American Type Culture Collection (ATCC)) were cultured in Dulbecco's Modified Eagle's Medium supplemented with 2 mM glutamine, 1% antibiotics (streptomycin 10,000 μg/ml, penicillin, 10,000 IU/ml) and 10% (w/v) foetal calf serum (FCS), at 37° C. in a humidified atmosphere containing 5% CO2. Stock solutions of VEPEP-9/peptide particles were prepared by complexing 1 μM peptide with VEPEP-9 peptides at a molar ratio of 1/20 for 30 min at 37° C. Lower concentrations of VEPEP-9-carrier/peptide (from 500 nM to 1 μM) were obtained by serial dilution of the stock complexes in PBS, in order to preserve the same VEPEP-9-carrier/peptide ratio. Stock solutions of VEPEP-9/siRNA particles were prepared by complexing 100 nM siRNA with VEPEP-9 peptides at a molar ratio of 1/20 for 30 min at 37° C. Lower concentrations of VEPEP-9/siRNA (from 20 nM to 0.125 nM) were obtained by serial dilution of the stock complexes in PBS, in order to preserve the same VEPEP-9/siRNA ratio. […] For cdk2 derived peptides, cell proliferation was monitored after 24 and 48 hrs. For siRNA targeting Cyclin B1, Cyclin B1 mRNA level was determined 24 hrs following transduction, using Quantigen (Pommies Inc.). […]

A further series deals with HEK-2. The series is described as follows: G2 arrest (accumulation of cells with 4 N content). The class given is cell-based. Particulars: Cyclin B1 siRNA delivered with VEPEP-9.
For the next series, the system named is HT29 tumor. The series is described as follows: Tumour size, intravenous Cyc B1 siRNA in NANOPEP-9. Particulars: intravenous every three days, day 50. The class given is in vivo, mice. The protocol:
NANOPEP-9b and NANOPEP-9e particles were used for systemic intravenous administration. Five micrograms (0.25 mg/kg) and 10 μg (0.5 mg/kg) of Cyc B1 siRNA in NANOPEP-9b and NANOPEP-9e particles were injected intravenously every three days into mice bearing xenografted tumors.

Series [4] concerns PC3, A549, or SCK-3-HEK2-xenografted mice. The series is described as follows: Tumour growth and cyclin B1 mRNA, siRNA controls. The class given is in vivo. The protocol:
(§2) For siRNA treatment: Two to three weeks after tumour implant, when tumour size reached about 100 mm^3, animals were treated by intratumoral or intravenous injection, every 3 days, with a solution of 0.1 ml of either free Cyc-B1 siRNA (50 or 100 μg), control siRNA Cyc-B3 or Cyc-B1 siRNA (1, 5, 10 μg) complexed with NANOPEP-9 at a 1/20 molar ratio.
Athymic female nude mice (6-8 weeks of age) were subcutaneously inoculated into the flank with 1×10^6 PC3 (prostate cancer), A549 (lung cancer) or SCK-3-HEK2 (ovarian cancer) cells in 100 μl PBS. Two to three weeks after tumour implant, when tumour size reached about 100 mm^3, animals were treated by intratumoral or intravenous injection, every 3 days, with a solution of 0.1 ml of either free Cyc-B1 siRNA (50 or 100 μg), control siRNA Cyc-B3 or Cyc-B1 siRNA (5, 10 μg) complexed with NANOPEP-9b or NANOPEP-9e particles. The “core” shell of the particles was formed using VEVEP-9b or VEPEP-9e peptide at a molar ratio of 20/1 with a siRNA targeting cycline B1. siRNA stock solutions are in 50 mM Tris, 0.5 mM EDTA buffer or in RNase free water. VEPEP-9 peptides were solubilised in water and stock solution of peptide was sonicated for 10 min in a water bath before complex formation. Then VEPEP-9/siRNA complexes were formed by adding siRNA into the peptide solution and incubating at 37° C. for 20-30 minutes to allow the carrier peptide/siRNA complexes to form. NANOPEP-9 particles contain a VEPEP-9/siRNA “core shell” surrounded by additional VEPEP-9 at a 1/20 molar ratio.
The potential of NANOPEP-9b or NANOPEP-9e to deliver cyclin B1 siRNA in vivo was evaluated on PC3, A549, or SCK-3-HEK2-xenografted mice (FIGS. 13A-13B). The effect of local intratumoral administration of NANOPEP-9/siRNA particles (molar ratio 20/1) on the growth of established subcutaneous tumours was evaluated. At day 50, tumor sizes in the control cohort, injected with PBS increased by about 3 to 5 fold. […] At day 48, it was validated that the Cyc-B1 siRNA mediated inhibition of tumour growth was directly associated with a decrease in the level of cyclin B1 mRNA.

In series [5] the test system is Hela. Particulars: read-out: IC50, accumulation of cells with a 4 N content (G2 arrest), Cyclin B1 siRNA delivered with VEPEP-9.
A further series has as its system cultured cells. Put plainly: Cell cycle progression / cyclin B1 levels in cultured cells. Particulars: VEPEP-9 mediated delivery. The class given is cell-based.
Series [6] concerns Hela. To be noted: read-out: IC50, block of proliferation, siRNA delivered with VEPEP-9b and VEPEP-9e.
Method: (§3) Adherent HS68 fibroblasts, HeLa, PC3, MCF-7, SCK3-Her2, PBMC cell lines (from American Type Culture Collection (ATCC)) were cultured in Dulbecco's Modified Eagle's Medium supplemented with 2 mM glutamine, 1% antibiotics (streptomycin 10,000 μg/ml, penicillin, 10,000 IU/ml) and 10% (w/v) foetal calf serum (FCS), at 37° C. in a humidified atmosphere containing 5% CO2. […] Stock solutions of VEPEP-9/siRNA particles were prepared by complexing 100 nM siRNA with VEPEP-9 peptides at a molar ratio of 1/20 for 30 min at 37° C. Lower concentrations of VEPEP-9/siRNA (from 20 nM to 0.125 nM) were obtained by serial dilution of the stock complexes in PBS, in order to preserve the same VEPEP-9/siRNA ratio. 150,000 cells seeded in a 35 mm dish the day prior transfection, were grown to 60% confluence and overlaid with 200 μl of preformed complexes, incubated for 3-5 min, then 400 μl of DMEM were added. After 30 min. incubation at 37° C., 1 ml of fresh DMEM containing 16% foetal calf serum (FCS) was added in order to reach a final FCS concentration of 10%, without removing the overlay of VEPEP-9/cargo complexes. Cells were returned to the incubator for 24 hrs. For cdk2 derived peptides, cell proliferation was monitored after 24 and 48 hrs. For siRNA targeting Cyclin B1, Cyclin B1 mRNA level was determined 24 hrs following transduction, using Quantigen (Pommies Inc.). […]
In series [7] the test system is MCF7. To be noted: read-out: IC50, accumulation of cells with a 4 N content (G2 arrest), Cyclin B1 siRNA delivered with VEPEP-9.
In series [8] the test system is Hela, MCF7, HEK-2 and U2OS cells. The series is described as follows: Cell proliferation after VEPEP-9 mediated delivery. The class given is cell-based. The protocol: as §1
Series [9] deals with MCF7. To be noted: read-out: IC50, block of proliferation, siRNA delivered with VEPEP-9b and VEPEP-9e.
Method: as §3
A further series relates to PC3 tumor. Put plainly: Tumour size, intravenous Cyc B1 siRNA in NANOPEP-9. The class given is in vivo, mice. To be noted: intravenous every three days, day 50. The method, then: as §2
Athymic female nude mice (6-8 weeks of age) were subcutaneously inoculated into the flank with 1×10^6 PC3 (prostate cancer), A549 (lung cancer) or SCK-3-HEK2 (ovarian cancer) cells in 100 μl PBS. Two to three weeks after tumour implant, when tumour size reached about 100 mm^3, animals were treated by intratumoral or intravenous injection, every 3 days, with a solution of 0.1 ml of either free Cyc-B1 siRNA (50 or 100 μg), control siRNA Cyc-B3 or Cyc-B1 siRNA (5, 10 μg) complexed with NANOPEP-9b or NANOPEP-9e particles. The “core” shell of the particles was formed using VEVEP-9b or VEPEP-9e peptide at a molar ratio of 20/1 with a siRNA targeting cycline B1. siRNA stock solutions are in 50 mM Tris, 0.5 mM EDTA buffer or in RNase free water. VEPEP-9 peptides were solubilised in water and stock solution of peptide was sonicated for 10 min in a water bath before complex formation. […]

Where two headings read alike, the source gives them in different places.

The source of these data is patent US10421784B2, “Cell penetrating peptides for intracellular delivery of molecules” (AADIGEN, LLC, priority 2012, dated 2019).

With `COc1cccc2c1C(=O)c1c(O)c3c(c(O)c1C2=O)C[C@@](O)(C(=O)CO)C[C@@H]3O[C@H]1C[C@H](N)[C@H](O)[C@H](C)O1` [Doxo, doxorubicin], the IC50 with SKB3 was found to be 600 nM; in the series with MCF7 [1] (drug complexed with VEPEP-9a at molar ratio 1/20, read-out: VEPEP-9a IC50), 100 nM; in the series on MCF7 [1] (drug complexed with VEPEP-9f at molar ratio 1/20, read-out: VEPEP-9f IC50) it was 700 nM; in the series with MCF7 [1] (drug complexed with VEPEP-9d at molar ratio 1/20, read-out: VEPEP-9d IC50), 170 nM. In series [2], this compound yielded a survival time of 16 days.

As for “siRNA: siRNA targeting Cyclin B1; sense 5′GGCGAAGAUCAACAUGGCATT3′, antisense 5′UGCCAUGUUGAUCUUCGCCTT3′ (chemistry not given here)”, the reduction of proliferation in series [3] came out at 10%. The IC50 in the series on HEK-2 was determined as 1.2 ± 0.6 nM; in the series on Hela [5] it was 2.4 ± 0.8 nM; in the series on Hela [6] it was 3.1 ± 0.2 nM; with MCF7 [7] it was 1.9 ± 0.9 nM; in the series on MCF7 [9] it was 1.6 ± 0.5 nM. Further, the “inhibition (reduction in tumor size)” value with HT29 tumor (5 μg siRNA) is recorded as 35%; in the series with HT29 tumor (10 μg siRNA) it was 70%; in the series with PC3 tumor (5 μg siRNA in NANOPEP-9b and NANOPEP-9e particles) it was 65%; with PC3 tumor (10 μg siRNA in NANOPEP-9b and NANOPEP-9e particles), 90%. For the same compound, the “effect on tumour growth” value in series [4] (100 μg naked siRNA (intratumoral or intravenous) or carrier alone) is given as “no significant effect”. Also, the “level of cyclin B1 mRNA in tumour” value in series [4] (day 48) is on record as “decrease”. Further, in the series on cultured cells, the “concentration at which 4 N accumulation was optimally obtained” value is reported as 20 nM. In [8], the “concentration sufficient to block proliferation” value came to 20 nM.
